Results taken from PubChem BioAssay (NCI).
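Following 48 hours of exposure in 96-well plates, responses at five concentrations were used to interpolate endpoints linearly. GI50 = concentration required for 50% inhibition of growth. TGI is the concentration that stops growth completely.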

What was measured:
Experiment in all cases: growth of human tumour cells (NCI), 48 h
HL-60(TB) leukemia = system: HL-60(TB) leukemia
786-0 renal = system: 786-0 renal
HS 578T breast = system: HS 578T breast
LOX IMVI melanoma = system: LOX IMVI melanoma
U251 CNS = system: U251 CNS
M14 melanoma = system: M14 melanoma
A498 renal = system: A498 renal
OVCAR-5 ovarian = system: OVCAR-5 ovarian
SF-295 CNS = system: SF-295 CNS
HOP-62 NSCLC = system: HOP-62 NSCLC
SF-268 CNS = system: SF-268 CNS
HCT-116 colon = system: HCT-116 colon
OVCAR-4 ovarian = system: OVCAR-4 ovarian
HT29 colon = system: HT29 colon
HCC-2998 colon = system: HCC-2998 colon
IGROV1 ovarian = system: IGROV1 ovarian
MDA-MB-231 breast = system: MDA-MB-231 breast
PC-3 prostate = system: PC-3 prostate
COLO 205 colon = system: COLO 205 colon
NCI-H460 lung = system: NCI-H460 lung
OVCAR-3 ovarian = system: OVCAR-3 ovarian
DU-145 prostate = system: DU-145 prostate
SF-539 CNS = system: SF-539 CNS
SNB-75 CNS = system: SNB-75 CNS
UACC-62 melanoma = system: UACC-62 melanoma
MCF7 breast = system: MCF7 breast
SK-MEL-5 melanoma = system: SK-MEL-5 melanoma
BT-549 breast = system: BT-549 breast
OVCAR-8 ovarian = system: OVCAR-8 ovarian
MOLT-4 leukemia = system: MOLT-4 leukemia
MDA-MB-435 = system: MDA-MB-435
TK-10 renal = system: TK-10 renal
HCT-15 colon = system: HCT-15 colon
KM12 colon = system: KM12 colon
UACC-257 melanoma = system: UACC-257 melanoma
RXF 393 renal = system: RXF 393 renal
SK-OV-3 ovarian = system: SK-OV-3 ovarian
ACHN renal = system: ACHN renal
NCI-H522 lung = system: NCI-H522 lung
EKVX NSCLC = system: EKVX NSCLC
SK-MEL-28 melanoma = system: SK-MEL-28 melanoma
NCI-H23 lung = system: NCI-H23 lung
NCI-H226 lung = system: NCI-H226 lung
T-47D breast = system: T-47D breast
SN12C renal = system: SN12C renal
HOP-92 NSCLC = system: HOP-92 NSCLC
UO-31 renal = system: UO-31 renal
CAKI-1 renal = system: CAKI-1 renal
NCI/ADR-RES ovarian = system: NCI/ADR-RES ovarian
SNB-19 CNS = system: SNB-19 CNS
MALME-3M melanoma = system: MALME-3M melanoma
CCRF-CEM leukemia = system: CCRF-CEM leukemia
RPMI-8226 leukemia = system: RPMI-8226 leukemia
A549 NSCLC = system: A549 NSCLC
SW-620 colon = system: SW-620 colon

`c1ccc(CNc2nc(Nc3ccc(-c4nc5ccccc5[nH]4)cc3)c3cn[nH]c3n2)cc1` showed a GI50 (HL-60(TB) leukemia) of 2540 nM, a TGI (HL-60(TB) leukemia) of 7.44 µM and a GI50 (786-0 renal) of 1770 nM. For the same compound, the TGI (786-0 renal) was 3.73 µM, the GI50 (HS 578T breast) was 2450 nM and the TGI (HS 578T breast) was 8.22 µM. It also gave a GI50 (LOX IMVI melanoma) of 1690 nM, a TGI (LOX IMVI melanoma) of 3.36 µM and a GI50 (U251 CNS) of 2270 nM. It also gave a TGI (U251 CNS) of 5.85 µM, a GI50 (M14 melanoma) of 1720 nM and a TGI (M14 melanoma) of 3.81 µM. The GI50 (A498 renal) was 2930 nM, the TGI (A498 renal) was 8.22 µM and the GI50 (OVCAR-5 ovarian) was 2520 nM. It also gave a TGI (OVCAR-5 ovarian) of 6.86 µM, a GI50 (SF-295 CNS) of 1700 nM and a TGI (SF-295 CNS) of 3.84 µM. The GI50 (HOP-62 NSCLC) was 2170 nM, the TGI (HOP-62 NSCLC) was 5.48 µM and the GI50 (SF-268 CNS) was 2370 nM. The TGI (SF-268 CNS) was 7.1 µM, the GI50 (HCT-116 colon) was 1740 nM and the TGI (HCT-116 colon) was 3.64 µM. It also gave a GI50 (OVCAR-4 ovarian) of 2280 nM, a TGI (OVCAR-4 ovarian) of 7.14 µM and a GI50 (HT29 colon) of 2090 nM. The TGI (HT29 colon) was 5.57 µM, the GI50 (HCC-2998 colon) was 1910 nM and the TGI (HCC-2998 colon) was 3.78 µM. The GI50 (IGROV1 ovarian) was 2490 nM, the TGI (IGROV1 ovarian) was 6.99 µM and the GI50 (MDA-MB-231 breast) was 2110 nM. It also gave a TGI (MDA-MB-231 breast) of 4.97 µM, a GI50 (PC-3 prostate) of 1780 nM and a TGI (PC-3 prostate) of 6.36 µM. For the same compound, the GI50 (COLO 205 colon) was 1780 nM, the TGI (COLO 205 colon) was 3.72 µM and the GI50 (NCI-H460 lung) was 2180 nM. For the same compound, the TGI (NCI-H460 lung) was 5.76 µM, the GI50 (OVCAR-3 ovarian) was 1610 nM and the TGI (OVCAR-3 ovarian) was 3.3 µM. It also gave a GI50 (DU-145 prostate) of 3.33 µM, a TGI (DU-145 prostate) of 12.5 µM and a GI50 (SF-539 CNS) of 2000 nM. It also gave a TGI (SF-539 CNS) of 5.19 µM, a GI50 (SNB-75 CNS) of 5.12 µM and a TGI (SNB-75 CNS) of 47.1 µM. The GI50 (UACC-62 melanoma) was 2130 nM, the TGI (UACC-62 melanoma) was 4.92 µM and the GI50 (MCF7 breast) was 1950 nM. The TGI (MCF7 breast) was 6.35 µM, the GI50 (SK-MEL-5 melanoma) was 1740 nM and the TGI (SK-MEL-5 melanoma) was 3.3 µM. It also gave a GI50 (BT-549 breast) of 2030 nM, a TGI (BT-549 breast) of 5.27 µM and a GI50 (OVCAR-8 ovarian) of 2570 nM. It also gave a TGI (OVCAR-8 ovarian) of 6.73 µM, a GI50 (MOLT-4 leukemia) of 2430 nM and a TGI (MOLT-4 leukemia) of 6.33 µM. For the same compound, the GI50 (MDA-MB-435) was 1970 nM, the TGI (MDA-MB-435) was 5.15 µM and the GI50 (TK-10 renal) was 2930 nM. For the same compound, the TGI (TK-10 renal) was 8.35 µM, the GI50 (HCT-15 colon) was 1890 nM and the TGI (HCT-15 colon) was 7.65 µM. It also gave a GI50 (KM12 colon) of 1900 nM, a TGI (KM12 colon) of 4.87 µM and a GI50 (UACC-257 melanoma) of 1610 nM. For the same compound, the TGI (UACC-257 melanoma) was 3.4 µM, the GI50 (RXF 393 renal) was 1570 nM and the TGI (RXF 393 renal) was 3.65 µM. It also gave a GI50 (SK-OV-3 ovarian) of 3.97 µM, a TGI (SK-OV-3 ovarian) of 17.8 µM and a GI50 (ACHN renal) of 2290 nM. The TGI (ACHN renal) was 6.5 µM, the GI50 (NCI-H522 lung) was 2240 nM and the TGI (NCI-H522 lung) was 5.68 µM. The GI50 (EKVX NSCLC) was 3.27 µM, the TGI (EKVX NSCLC) was 23.6 µM and the GI50 (SK-MEL-28 melanoma) was 2150 nM. It also gave a TGI (SK-MEL-28 melanoma) of 6.68 µM, a GI50 (NCI-H23 lung) of 2280 nM and a TGI (NCI-H23 lung) of 6.13 µM. It also gave a GI50 (NCI-H226 lung) of 2980 nM, a TGI (NCI-H226 lung) of 8.43 µM and a GI50 (T-47D breast) of 1630 nM. For the same compound, the TGI (T-47D breast) was 5.46 µM, the GI50 (SN12C renal) was 2750 nM and the TGI (SN12C renal) was 7.37 µM. It also gave a GI50 (HOP-92 NSCLC) of 1990 nM, a TGI (HOP-92 NSCLC) of 5.56 µM and a GI50 (UO-31 renal) of 2020 nM. For the same compound, the TGI (UO-31 renal) was 6.02 µM, the GI50 (CAKI-1 renal) was 2130 nM and the TGI (CAKI-1 renal) was 5.47 µM. The GI50 (NCI/ADR-RES ovarian) was 2220 nM, the TGI (NCI/ADR-RES ovarian) was 5.99 µM and the GI50 (SNB-19 CNS) was 4.27 µM. It also gave a TGI (SNB-19 CNS) of 31.3 µM, a GI50 (MALME-3M melanoma) of 1810 nM and a TGI (MALME-3M melanoma) of 3.8 µM. The GI50 (CCRF-CEM leukemia) was 3.62 µM, the TGI (CCRF-CEM leukemia) was > 100 µM and the GI50 (RPMI-8226 leukemia) was 2150 nM. It also gave a TGI (RPMI-8226 leukemia) of 5.51 µM, a GI50 (A549 NSCLC) of 2890 nM and a TGI (A549 NSCLC) of 8.92 µM. The GI50 (SW-620 colon) was 2690 nM and the TGI (SW-620 colon) was 6.62 µM.
